Measured values published in patent US6833372B2, “Non-peptide GnRH agents, Pharmaceutical compositions, and methods for their use” (Pfizer, Inc., priority 2002, dated 2004).

Each compound was assayed against T1, human GnRH receptors (Homo sapiens, UniProt P30968) (assay: Radioligand binding: inhibition of 125I-GnRH-A binding to human GnRH receptor membranes). Settings: HEK 293 cell membranes.
T1 construct: expressed in transfected cells; host or cells: HEK 293 cells, stably transfected; membranes
T1 sequence (P30968 1-328): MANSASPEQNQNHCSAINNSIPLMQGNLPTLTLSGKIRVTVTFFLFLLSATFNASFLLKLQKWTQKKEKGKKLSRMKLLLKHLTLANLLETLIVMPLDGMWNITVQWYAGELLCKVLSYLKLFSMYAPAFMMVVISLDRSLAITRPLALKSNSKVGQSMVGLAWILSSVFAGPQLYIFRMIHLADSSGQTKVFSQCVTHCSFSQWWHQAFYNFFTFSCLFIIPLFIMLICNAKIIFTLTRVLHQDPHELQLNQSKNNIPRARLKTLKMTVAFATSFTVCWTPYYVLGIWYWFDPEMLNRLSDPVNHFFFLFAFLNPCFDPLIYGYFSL
Description: HEK 293 cells stably transfected with mouse or human GnRH receptors as described above were grown in Dulbecco's high-glucose, modified Eagle's medium (DMEM) supplemented with 0.2% G418, 10% fetal bovine serum (FBS) and 100 U/mL penicillin/streptomycin. GH3 cells stably transfected with the rat GnRH receptor (GGH3) were provided by Dr. William Chin (Harvard Medical School, Boston, Mass.). These cells have been extensively characterized previously (Kaiser et al., 1997). The cells were grown in low glucose DMEM containing: 100U/mL penicillin/streptomycin, 0.6% G418 and 10% heat-inactivated FBS.
(§1) HEK 293 cells containing mouse or human receptors, or rat pituitaries (Pel Freez Biologicals, Rogers, Ark.) were homogenized in buffer A containing: 50 mM Tris (pH 7.4), 0.32 M sucrose, 2 mM EGTA, 1 mM PMSF, 5 μg/ml aprotinen, 5 μg/ml Pepstatin A, and 1 μg/ml leupeptin. Homogenized cells were centrifuged at 4° C. at 20,000×g for 25 minutes, re-suspended in buffer A and re-centrifuged at 4° C. at 20,000×g for an additional 25 minutes. Total membrane protein was determined with a BCA kit (Pierce, Rockford, Ill.). Membranes were stored at −70° C. at a final membrane protein concentration of approximately 5 mg/ml.
(§2) The radioiodinated agonist analog of GnRH, [des-Gly^10,D-Ala^6]GnRH ethylamide (^125I-GnRH-A), was used as the radioligand. […] The reaction mixture was vortexed and incubated for 1 minute at room temperature. After one minute, the mixture was vortexed and allowed to incubate for an additional minute. 2 ml of 0.5 M acetic acid/1% BSA was added to the reaction tube and the mixture was added to a C18 Sep-Pak cartridge. The cartridge was washed with subsequent washes of 5 ml H2O and 5 ml 0.5 M acetic acid and then eluted with 5×1 ml of 60% CH3CN/40% 0.5 M acetic acid. The eluate was diluted with 3× volume of HPLC buffer A (0.1% TFA in H2O) and loaded onto a C18 column. The iodinated product was eluted over 20-25 min with a gradient of 25-100% CH3CN containing 0.1% TFA. The radioactive fractions (750 μl/fraction) were collected into clean polypropylene tubes containing 100 μl of 10% BSA. Fractions were assessed for biological activity by radioligand binding. Specific activity of the radioligand was approximately 2200 Ci/mmol.
(§3) Membranes were diluted to 0.01-0.5 mg/ml (depending upon the species of receptor) with assay buffer containing 50 mM HEPES (pH 7.4), 1 mM EDTA, 2.5 mM MgCl2, and 0.1% BSA. Membranes (diluted to utilize similar receptor numbers between assays) were incubated with approximately 0.04-0.06 nM ^125I-GnRH-A in the presence or absence of competing agents (0.1-10,000 nM) in a total volume of 200 μl in 96-well polypropylene plates for 1 hour at room temperature. Assays were stopped by rapid filtration onto 96-well GF/C filters soaked in 0.1% polyethylenimine (PEI) utilizing a Packard 96-well cell harvester. Filters were washed three times with ice-cold PBS (50 mM NaPO4, 0.9% NaCl, 2 mM MgCl2, and 0.02% NaN3, pH 7.4). 35 μl of scintillation cocktail was added to each filter well and filters were counted on a Packard Topcount. Control dose-response curves were generated to GnRH (0.1 nM-100 nM) in each competition binding experiment. Ki values were calculated from IC50 values according to Cheng et al., Biochemical Pharmacol. 22: 3099-3108, 1973. [formula]
`COc1nc(Oc2ccccc2)nc(OC)c1NC(=O)c1ccc(Cc2cc3c(cc2C)C(C)(C)OC3(C)C)o1` [Example A2, 5-(1,1,3,3,6-Pentamethyl-1,3-dihydro-isobenzofuran-5-ylmethyl)-furan-2-carboxylic acid (4,6-dimethoxy-2-phenoxy-pyrimidin-5-yl)-amide] gave a Ki of 7.6 nM.
Work on `COCCOc1nc(OC)c(NC(=O)c2ccc(Cc3cc4c(cc3C)C(C)(C)OC4(C)C)o2)c(OC)n1` [Example A4, 5-(1,1,3,3,6-Pentamethyl-1,3-dihydro-isobenzofuran-5-ylmethyl)-furan-2-carboxylic acid [4,6-dimethoxy-2-(2-methoxy-ethoxy)-pyrimidin-5-yl]-amide] yielded a Ki of 18 nM.
In the case of `COc1nc(NC2CCN(C)CC2)nc(OC)c1NC(=O)c1ccc(Cc2cc3c(cc2C)C(C)(C)OC3(C)C)o1` [Example D13, N-{4,6-Dimethoxy-2-[(1-methylpiperidin-4-yl)amino]pyrimidin-5-yl}-5-[(1,1,3,3,6-pentamethyl-1,3-dihydro-2-benzofuran-5-yl)methyl]-2-furamide], the Ki is reported as 38 nM.
`CCOC(=O)CN(Cc1ccccc1)c1nc(OC)c(NC(=O)c2ccc(Cc3cc4c(cc3C)C(C)(C)OC4(C)C)o2)c(OC)n1` [Example D51, Ethyl N-benzyl-N-[4,6-dimethoxy-5-({5-[(1,1,3,3,6-pentamethyl-1,3-dihydro-2-benzofuran-5-yl)methyl]-2-furoyl}amino)pyrimidin-2-yl]glycinate] gave a Ki of 202 nM.
Compound `COc1ccccc1C1CCN(c2nc(OC)c(NC(=O)c3ccc(Cc4cc5c(cc4C)C(C)(C)OC5(C)C)o3)c(OC)n2)CC1` [Example D52, N-{4,6-Dimethoxy-2-[4-(2-methoxyphenyl)piperidin-1-yl]pyrimidin-5-yl}-5-[(1,1,3,3,6-pentamethyl-1,3-dihydro-2-benzofuran-5-yl)methyl]-2-furamide] has a Ki of 260 nM.
With `COc1nc(N2CCN(Cc3ccncc3)CC2)nc(OC)c1NC(=O)c1ccc(Cc2cc3c(cc2C)C(C)(C)OC3(C)C)o1` [Example D54, N-{4,6-Dimethoxy-2-[4-(pyridin-4-ylmethyl)piperazin-1-yl]pyrimidin-5-yl}-5-[(1,1,3,3,6-pentamethyl-1,3-dihydro-2-benzofuran-5-yl)methyl]-2-furamide] the Ki was 150 nM.
Compound `COc1nc(NCc2ccc(-c3ccccc3)cc2)nc(OC)c1NC(=O)c1ccc(Cc2cc3c(cc2C)C(C)(C)OC3(C)C)o1` [Example D55, N-{2-[(1,1′-Biphenyl-4-ylmethyl)amino]-4,6-dimethoxypyrimidin-5-yl}-5-[(1,1,3,3,6-pentamethyl-1,3-dihydro-2-benzofuran-5-yl)methyl]-2-furamide] has a Ki of 160 nM.
`COc1nc(N2CCN(c3cc(C(F)(F)F)nc4ccccc34)CC2)nc(OC)c1NC(=O)c1ccc(Cc2cc3c(cc2C)C(C)(C)OC3(C)C)o1` [Example D61, N-(4,6-dimethoxy-2-{4-[2-(trinfluoromethyl)quinolin-4-yl]piperazin-1-yl}pyrimidin-5-yl)-5-[(1,1,3,3,6-pentamethyl-1,3-dihydro-2-benzofuran-5-yl)methyl]-2-furamide] showed a Ki of 500 nM.
`COc1nc(N2CCN(c3ccc(Cl)cc3)CC2)nc(OC)c1NC(=O)c1ccc(Cc2cc3c(cc2C)C(C)(C)OC3(C)C)o1` [Example D62, N-{2-[4-(4-Chlorophenyl)piperazin-1-yl]-4,6-dimethoxypyrimidin-5-yl}-5-[(1,1,3,3,6-pentamethyl-1,3-dihydro-2-benzofuran-5-yl)methyl]-2-furamide] gave a Ki of 120 nM.
`COc1nc(NCCCN2CCN(C)CC2)nc(OC)c1NC(=O)c1ccc(Cc2cc3c(cc2C)C(C)(C)OC3(C)C)o1` [Example D63, N-(4,6-Dimethoxy-2-{[3-(4-methylpiperazin-1-yl)propyl]amino}pyrimidin-5-yl)-5-[(1,1,3,3,6-pentamethyl-1,3-dihydro-2-benzofuran-5-yl)methyl]-2-furamide] was tested, and the Ki was 1.8 nM.
Compound `COc1nc(N[C@H](CO)Cc2c[nH]c3ccccc23)nc(OC)c1NC(=O)c1ccc(Cc2cc3c(cc2C)C(C)(C)OC3(C)C)o1` [Example D64, N-(2-{[(1S)-2-Hydroxy-1-(1H-indol-3-ylmethyl)ethyl]amino}-4,6-dimethoxypyrimidin-5-yl)-5-[(1,1,3,3,6-pentamethyl-1,3-dihydro-2-benzofuran-5-yl)methyl]-2-furamide] has a Ki of 21 nM.
Work on `COc1nc(NCCc2ccccn2)nc(OC)c1NC(=O)c1ccc(Cc2cc3c(cc2C)C(C)(C)OC3(C)C)o1` [Example D65, N-{4,6-Dimethoxy-2-[(2-pyridin-2-ylethyl)amino]pyrimidin-5-yl}-5-[(1,1,3,3,6-pentamethyl-1,3-dihydro-2-benzofuran-5-yl)methyl]-2-furamide] yielded a Ki of 6.7 nM.
In the case of `COc1nc(NCCc2ccncc2)nc(OC)c1NC(=O)c1ccc(Cc2cc3c(cc2C)C(C)(C)OC3(C)C)o1` [Example D66, N-{4,6-Dimethoxy-2-[(2-pyridin-4-ylethyl)amino]pyrimidin-5-yl}-5-[(1,1,3,3,6-pentamethyl-1,3-dihydro-2-benzofuran-5-yl)methyl]-2-furamide], the Ki is reported as 5.1 nM.
Compound `COc1nc(NCCCN2CCOCC2)nc(OC)c1NC(=O)c1ccc(Cc2c(C)cc3c(c2C)C(C)(C)CO3)o1` [Example H1, N-{4,6-Dimethoxy-2-[(3-morpholin-4-ylpropyl)amino]-pyrimidin-5-yl}-5-[(3,3,4,6-tetramethyl-2,3-dihydro-1-benzofuran-5-yl)methyl]-2-furamide] has a Ki of 50 nM.
For `COc1nc(NCCCN2CCN(C)CC2)nc(OC)c1NC(=O)c1ccc(Cc2c(C)cc3c(c2C)C(C)(C)CO3)o1` [Example H2, N-(4,6-Dimethoxy-2-{[3-(4-methylpiperazin-1-yl)propyl]amino}pyrimidin-5-yl)-5-[(3,3,4,6-tetramethyl-2,3-dihydro-1-benzofuran-5-yl)methyl]-2-furamide], the Ki was 47 nM.
With `COc1nc(NCCCN(C)C)nc(OC)c1NC(=O)c1ccc(Cc2c(C)cc3c(c2C)C(C)(C)CO3)o1` [Example H3, N-(2-{[3-(Dimethylamino)propyl]amino}-4,6-dimethoxypyrimidin-5-yl)-5-[(3,3,4,6-tetramethyl-2,3-dihydro-1-benzofuran-5-yl)methyl]-2-furamide] the Ki was 46 nM.
In the case of `COc1nc(NCCCN(C)C)nc(OC)c1NC(=O)c1ccc(Cc2cc3c(cc2C)C(C)(C)CC3(C)C)o1` [Example J1, N-(2-{[3-(dimethylamino)propyl]amino}-4,6-dimethoxypyrimidin-5-yl)-5-[(1,1,3,3,6-pentamethyl-2,3-dihydro-1H-inden-5-yl)methyl]-2-furamide], the Ki is reported as 0.2 nM.

The compounds below were run against T2, rat GnRH receptor (Rattus norvegicus, UniProt P30969) (assay: Radioligand binding: inhibition of 125I-GnRH-A binding to rat GnRH receptor (rat pituitary membranes)). Settings: read-out: Ki (nM), Inhibition Binding of 125I-GnRH-A to GnRH Receptors.
T2 construct: or rat pituitaries (Pel Freez Biologicals, Rogers, Ark.) were homogenized; tissue Pel Freez Biologicals; host or cells: rat pituitaries (membrane preparation)
T2 sequence (P30969 1-327): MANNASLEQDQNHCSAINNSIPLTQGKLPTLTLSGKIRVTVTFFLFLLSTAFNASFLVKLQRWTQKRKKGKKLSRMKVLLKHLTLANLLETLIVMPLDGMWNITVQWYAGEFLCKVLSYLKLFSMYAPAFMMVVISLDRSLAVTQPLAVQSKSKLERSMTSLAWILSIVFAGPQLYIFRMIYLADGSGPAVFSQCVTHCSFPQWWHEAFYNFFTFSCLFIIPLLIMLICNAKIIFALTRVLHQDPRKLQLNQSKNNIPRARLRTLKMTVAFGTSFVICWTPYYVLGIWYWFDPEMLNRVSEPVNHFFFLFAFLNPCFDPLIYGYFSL
Description: as §1, §2, §3
`COc1nc(Oc2ccccc2)nc(OC)c1NC(=O)c1ccc(Cc2cc3c(cc2C)C(C)(C)OC3(C)C)o1` [Example A2, 5-(1,1,3,3,6-Pentamethyl-1,3-dihydro-isobenzofuran-5-ylmethyl)-furan-2-carboxylic acid (4,6-dimethoxy-2-phenoxy-pyrimidin-5-yl)-amide] was tested, and the Ki was 9 nM.
With `COCCOc1nc(OC)c(NC(=O)c2ccc(Cc3cc4c(cc3C)C(C)(C)OC4(C)C)o2)c(OC)n1` [Example A4, 5-(1,1,3,3,6-Pentamethyl-1,3-dihydro-isobenzofuran-5-ylmethyl)-furan-2-carboxylic acid [4,6-dimethoxy-2-(2-methoxy-ethoxy)-pyrimidin-5-yl]-amide] the Ki was 9.5 nM.
`COc1nc(NC2CCN(C)CC2)nc(OC)c1NC(=O)c1ccc(Cc2cc3c(cc2C)C(C)(C)OC3(C)C)o1` [Example D13, N-{4,6-Dimethoxy-2-[(1-methylpiperidin-4-yl)amino]pyrimidin-5-yl}-5-[(1,1,3,3,6-pentamethyl-1,3-dihydro-2-benzofuran-5-yl)methyl]-2-furamide] showed a Ki of 16 nM.
